Reference: publication PMC8185113, “Critical angle reflection imaging for quantification of molecular interactions on glass surface” (Nature Communications, 2021)

Legend:
wild-type SH-EP1 cells = assay: control: acetylcholine on wild-type SH-EP1 cells (no nAChR) measured by CAR; assay type: binding; settings: wild-type SH-EP1 cells without nAChR, 50, 100, 200 nM
Description: (§1) Most drugs are small molecules, and over 50% drug targets are membrane proteins.
(§2) CAR angle was set at 61.6 degrees with a sensitivity of 112 RIU^−1. The binding kinetic curves (black) were obtained by averaging the CAR response of seven cells and globally fitted to the first-order kinetics (red) (see Supplementary Figure 12b for the response of individual cells).
(§3) All the cell-related experiments including CAR, SPR, transmitted and fluorescence measurements (Figs. 4–6) were performed on an objective-based SPR microscope setup, which consisted of an inverted microscope (Olympus IX-81) and a ×60 (NA 1.49) oil-immersion objective. The light source for CAR and SPR imaging was a superluminescent light-emitting diode (SLED) (SLD-260-HP-TOW-PD-670, Superlum, Ireland) with 670 nm wavelength and 1 mW power set by a SLED current driver (PILOT4-AC, Superlum). The SLED was mounted on a translation stage (PT3, Thorlabs) with a motorized actuator (Z825B, Thorlabs) for adjusting incident angle. […] The light source for transmitted and fluorescence imaging were the stocking halogen and mercury lamp of the microscope, respectively. The excitation and emission wavelength used for imaging Alexa Fluor 488 labelled WGA were 488 nm and 518 nm, respectively, and the power density on the sample was ~0.1 mW/cm^2. A CMOS camera (ORCA-Flash 4.0, Hamamatsu) was used to record the images. […]

[1] = biological target: T1, nicotinic acetylcholine receptor (nAChR), human α4β2 receptor on SH-EP1_α4β2 cells (Homo sapiens, UniProt P17787+P43681); assay: acetylcholine binding to nAChR on SH-EP1_α4β2 cells measured by SPR; settings: SH-EP1_α4β2 cells on gold; 50, 100, 200 nM
T1 construct: expressed in transfected cells; host or cells: SH-EP1 cells (SH-EP1_α4β2), gift from Dr. Jie Wu
T1 sequence (P43681 29-627 limits assumed): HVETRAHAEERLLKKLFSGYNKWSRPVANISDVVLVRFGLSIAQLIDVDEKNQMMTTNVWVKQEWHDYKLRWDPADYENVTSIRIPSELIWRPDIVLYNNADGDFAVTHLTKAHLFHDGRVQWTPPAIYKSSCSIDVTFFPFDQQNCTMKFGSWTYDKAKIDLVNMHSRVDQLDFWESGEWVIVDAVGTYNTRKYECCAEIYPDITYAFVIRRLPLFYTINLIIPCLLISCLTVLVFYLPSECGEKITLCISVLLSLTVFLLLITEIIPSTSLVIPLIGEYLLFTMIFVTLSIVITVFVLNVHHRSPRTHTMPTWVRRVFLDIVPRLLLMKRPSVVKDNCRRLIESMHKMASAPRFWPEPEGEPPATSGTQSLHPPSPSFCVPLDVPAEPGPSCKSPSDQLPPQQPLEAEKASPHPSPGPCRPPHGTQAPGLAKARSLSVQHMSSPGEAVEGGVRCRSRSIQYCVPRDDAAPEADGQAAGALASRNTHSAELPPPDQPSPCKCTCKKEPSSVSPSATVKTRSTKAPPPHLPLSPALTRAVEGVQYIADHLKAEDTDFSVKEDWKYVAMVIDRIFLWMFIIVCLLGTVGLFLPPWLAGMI
T1 sequence (P17787 26-502): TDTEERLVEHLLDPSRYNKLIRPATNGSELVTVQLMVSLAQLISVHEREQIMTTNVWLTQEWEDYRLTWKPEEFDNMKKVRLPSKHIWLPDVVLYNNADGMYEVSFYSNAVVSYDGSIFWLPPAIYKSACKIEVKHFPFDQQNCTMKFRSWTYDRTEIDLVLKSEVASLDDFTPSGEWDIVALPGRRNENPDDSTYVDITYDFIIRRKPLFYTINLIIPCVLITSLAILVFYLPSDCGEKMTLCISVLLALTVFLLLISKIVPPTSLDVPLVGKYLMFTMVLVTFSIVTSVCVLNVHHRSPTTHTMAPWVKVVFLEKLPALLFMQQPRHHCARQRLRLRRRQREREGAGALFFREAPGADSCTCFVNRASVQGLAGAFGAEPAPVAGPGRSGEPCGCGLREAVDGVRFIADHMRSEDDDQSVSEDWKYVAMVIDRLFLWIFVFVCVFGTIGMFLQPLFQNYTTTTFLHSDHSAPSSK
Description: as §1, §2, §3

[2] = biological target: T1, nicotinic acetylcholine receptor (nAChR), human α4β2 receptor on SH-EP1_α4β2 cells; assay: acetylcholine binding to nAChR on fixed SH-EP1_α4β2 cells measured by CAR imaging; settings: 61.6 degrees, average of seven cells, global fit
Description: as §1, §2, §3

CC(=O)OCC[N+](C)(C)C [acetylcholine]
CAR response (wild-type SH-EP1 cells): negligible | CAR response (wild-type SH-EP1 cells; listed as Acetylcholine): No clear CAR response | SPR response [1]: no measurable response | kd [2]: (1.5±0.1)×10^-3 s^-1
